Measurements published in patent US9156790B2, “Anticancer P21-activated kinase inhibitors” (Ohio State Innovation Foundation, priority 2013, dated 2015).

Columns and labels:
C-RAF = C-RAF (Homo sapiens, UniProt P04049); assay: Kinase profiling panel: C-RAF; assay type: biochemical; conditions: 5 μM compound; average of triplicate
Procedure: (§1) To further probe the selectivity of the compounds 4 and 15, they were subjected for kinase profiling service for screening against a panel of other kinases selected based on the kinase tree at 5 μM concentration, at or above the IC50 for the two compounds versus PAK in both in vitro and cell-based assays. […] PAK1 was not available for testing using this system thus it was not possible to compare directly in this assay system.

SGK = molecular target: T1, SGK (Homo sapiens, UniProt O00141); assay: Kinase profiling panel: SGK; assay type: biochemical; conditions: 5 μM compound; for % activity vs. DMSO, SGK: average of triplicate
T1 sequence (O00141 1-431): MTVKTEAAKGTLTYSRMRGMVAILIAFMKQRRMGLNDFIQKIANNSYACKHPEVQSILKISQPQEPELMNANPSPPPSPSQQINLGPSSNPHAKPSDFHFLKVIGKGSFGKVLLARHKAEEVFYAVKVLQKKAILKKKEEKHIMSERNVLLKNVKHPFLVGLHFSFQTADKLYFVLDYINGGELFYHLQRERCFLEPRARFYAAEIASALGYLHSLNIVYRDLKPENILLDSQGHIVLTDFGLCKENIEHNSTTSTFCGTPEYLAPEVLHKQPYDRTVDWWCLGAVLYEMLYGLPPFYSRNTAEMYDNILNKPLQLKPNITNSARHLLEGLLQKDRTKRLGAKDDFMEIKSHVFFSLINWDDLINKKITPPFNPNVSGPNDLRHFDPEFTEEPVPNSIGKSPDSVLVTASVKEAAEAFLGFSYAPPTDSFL
Procedure: as §1

JAK2 = JAK2 (Homo sapiens, UniProt O60674); assay: Kinase profiling panel: JAK2; assay type: biochemical; conditions: 5 μM compound; average of triplicate
Procedure: as §1

FTC133 cells = assay: MTT cell viability assay, FTC133; assay type: cell-based, Human; conditions: Homo sapiens, FTC-133, 72-hours of exposure, 1% FBS, mean±standard deviation (n=3), read-out: IC50 for reducing viability of FTC133 cells versus DMSO control
Excerpt: Human thyroid cancer BCPAP, TPC1, and FTC133 cell lines were the generous gifts of Drs. Rebecca Schweppe and Bryan Haugen (University of Colorado Denver) (Schweppe et al., The Journal of clinical endocrinology and metabolism 83:4331-4341 (2008)) with permission from the following originating laboratories: BCPAP—Dr. Fabien, Centre Hospitalier Lyon-Sud, France (Fabien et al., Cancer 73:2206-2212 (1994)); TPC1—Dr. Sato, Kanazawa University, Japan (Tanaka et al., Virology 161:62-411 (1987)); and FTC133—Dr. Goretzki, University of Leipzig, Germany (Goretzki et al., Recent Results Cancer Res 118:48-63 (1990)). The obtained cell lines were confirmed for identity by DNA fingerprinting. BCPAP was grown in RPMI 1640 medium (Life Technologies Co., Carlsbad, Calif.) while FTC133 and TPC1 were grown in DMEM (Life Technologies Co.), both supplemented with 10% fetal bovine serum (FBS) and NEAA unless as noted for experiments.
The effect of OSU-03012 and its derivatives on cell viability was assessed by using the 3-(4,5-dimethylthiazol-2-yl)-2,5-diphenyl-2H-tetrazolium bromide (MTT) assay. Three replicates were performed in each individual experiment, and experiments were repeated at least three separate times. Cells were grown in 96-well plates for 24 hours and were exposed to various concentrations of drugs dissolved in DMSO (final concentration 0.1%) in RPMI 1640 or DMEM containing 1% FBS for 72 hours. 10 μL of 0.5 mg/ml MTT was added to each well and cells were incubated in CO2 at 37° C. for 2 hours. Supernatants were removed from the wells, the reduced MTT dye was solubilized in 100 μL of solution C (12 ml of 1N HCl in 300 mL of isopropanol), and absorbance at 570 nm was determined on a microplate reader.
We assessed the ability of the compounds to reduce cell viability in vitro by MTT assay after 72 hours of continuous exposure. Results are shown in Table 1 and are depicted as the IC50 vs. simultaneously performed DMSO control.
^aThe reported IC50 values are concentrations at which BCPAP, FTC133 and TPC1 cell viability by MTT assays 50% of DMSO control after 72-hours of exposure. Data are presented as mean±standard deviation (n=3). PAK and PDK1 Selectivity In Vivo

GSK3α = GSK3α (Homo sapiens, UniProt P49840); assay: Kinase profiling panel: GSK3α; assay type: biochemical; conditions: 5 μM compound; average of triplicate
Procedure: as §1

Met = Met (Homo sapiens, UniProt P08581); assay: Kinase profiling panel: Met; assay type: biochemical; conditions: 5 μM compound; average of triplicate
Procedure: as §1

CDK1/cyclinB = CDK1/cyclinB (Homo sapiens, UniProt P06493); assay: Kinase profiling panel: CDK1/cyclinB; assay type: biochemical; conditions: 5 μM compound; average of triplicate
Procedure: as §1

LIMK1 = LIMK1 (Homo sapiens, UniProt P53667); assay: Kinase profiling panel: LIMK1; assay type: biochemical; conditions: 5 μM compound; average of triplicate
Procedure: as §1

IGF-1R, activated = IGF-1R, activated (Homo sapiens, UniProt P08069); assay: Kinase profiling panel: IGF-1R, activated; assay type: biochemical; conditions: 5 μM compound; average of triplicate
Procedure: as §1

other PAK kinases = assay: Kinase profiling panel: other PAK kinases (summary statement); assay type: biochemical; conditions: 5 μM compound
Procedure: as §1

S6 phosphorylation = assay: Western blot, S6 phosphorylation in thyroid cancer cells; assay type: cell-based, Human; conditions: for S6 phosphorylation, BCPAP and TPC1 cells: BCPAP and TPC1 cells (FIG. 4B)
Procedure: Protein isolation and Western blot were performed as previously described. Ringel et al., Cancer research 61:6105-6111 (2001). 25 μg of total cell lysates were loaded into 4-12% SDS-PAGE, electrophoresed, and transferred to nitrocellulose membranes for immunoblotting. Primary antibodies against Akt (#9272), phospho-Akt (Thr308) (#2965), p44/42 MAPK (Erk1/2) (#9107), phospho-p44/42 MAPK (Erk1/2) (Thr202/Tyr204) (#4377) and GAPDH (#2118) were obtained from Cell Signaling Technology (Danvers, Mass., USA). Antibody against Vimentin (V6630) and phospho-Ser55 Vimentin were from Sigma-Aldrich, Inc. (St. Louis, Mo.) and MBL Co. (Nagoya, Japan), respectively. Antibodies against total and phosphorylated S6 were from Cell Signaling Technology®.
The dose-dependency of compounds 4 and 15 was next assessed (FIG. 4). […] Due to the important role that ERK activation plays in thyroid cancer, and its signaling activation by thyroid oncogenes, the effects of the compounds on ERK phosphorylation was also assessed.

GSK3α, sequence (P49840 whole entry, species assumed): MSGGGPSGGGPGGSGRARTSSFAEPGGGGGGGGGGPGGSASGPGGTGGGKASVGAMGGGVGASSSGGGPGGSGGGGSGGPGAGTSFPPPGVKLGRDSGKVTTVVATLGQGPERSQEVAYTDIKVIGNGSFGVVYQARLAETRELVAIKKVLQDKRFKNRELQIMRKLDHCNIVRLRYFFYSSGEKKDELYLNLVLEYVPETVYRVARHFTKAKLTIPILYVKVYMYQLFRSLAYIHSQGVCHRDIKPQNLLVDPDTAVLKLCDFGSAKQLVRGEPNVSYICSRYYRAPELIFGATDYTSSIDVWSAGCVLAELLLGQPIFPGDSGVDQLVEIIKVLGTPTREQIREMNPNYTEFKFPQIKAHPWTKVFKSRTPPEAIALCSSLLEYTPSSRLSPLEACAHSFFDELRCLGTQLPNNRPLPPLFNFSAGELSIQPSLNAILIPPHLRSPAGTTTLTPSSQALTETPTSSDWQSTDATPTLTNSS
CDK1/cyclinB, sequence (P06493 whole entry, species assumed): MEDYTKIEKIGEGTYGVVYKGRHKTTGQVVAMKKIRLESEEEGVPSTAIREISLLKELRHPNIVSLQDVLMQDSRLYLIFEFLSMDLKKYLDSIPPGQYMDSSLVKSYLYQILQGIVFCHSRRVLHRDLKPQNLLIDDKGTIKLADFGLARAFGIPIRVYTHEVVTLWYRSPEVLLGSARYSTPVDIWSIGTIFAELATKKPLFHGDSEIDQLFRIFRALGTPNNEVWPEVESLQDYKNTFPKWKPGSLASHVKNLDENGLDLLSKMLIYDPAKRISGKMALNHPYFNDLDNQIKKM
CDK1/cyclinB, sequence (P14635 whole entry partner, species assumed): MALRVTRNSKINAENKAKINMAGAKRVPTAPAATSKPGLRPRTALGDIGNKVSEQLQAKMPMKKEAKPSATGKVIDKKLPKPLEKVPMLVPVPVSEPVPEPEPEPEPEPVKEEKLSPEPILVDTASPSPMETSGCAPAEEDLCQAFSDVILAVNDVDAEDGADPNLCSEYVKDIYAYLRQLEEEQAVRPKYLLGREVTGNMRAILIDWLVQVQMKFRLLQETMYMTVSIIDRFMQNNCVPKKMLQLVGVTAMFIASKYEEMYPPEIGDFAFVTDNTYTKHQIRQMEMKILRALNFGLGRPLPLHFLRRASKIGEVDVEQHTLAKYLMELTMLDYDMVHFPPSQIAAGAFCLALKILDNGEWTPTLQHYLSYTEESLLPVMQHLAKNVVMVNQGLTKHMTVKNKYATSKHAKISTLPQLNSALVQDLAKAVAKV
Met, sequence (P08581 25-1390): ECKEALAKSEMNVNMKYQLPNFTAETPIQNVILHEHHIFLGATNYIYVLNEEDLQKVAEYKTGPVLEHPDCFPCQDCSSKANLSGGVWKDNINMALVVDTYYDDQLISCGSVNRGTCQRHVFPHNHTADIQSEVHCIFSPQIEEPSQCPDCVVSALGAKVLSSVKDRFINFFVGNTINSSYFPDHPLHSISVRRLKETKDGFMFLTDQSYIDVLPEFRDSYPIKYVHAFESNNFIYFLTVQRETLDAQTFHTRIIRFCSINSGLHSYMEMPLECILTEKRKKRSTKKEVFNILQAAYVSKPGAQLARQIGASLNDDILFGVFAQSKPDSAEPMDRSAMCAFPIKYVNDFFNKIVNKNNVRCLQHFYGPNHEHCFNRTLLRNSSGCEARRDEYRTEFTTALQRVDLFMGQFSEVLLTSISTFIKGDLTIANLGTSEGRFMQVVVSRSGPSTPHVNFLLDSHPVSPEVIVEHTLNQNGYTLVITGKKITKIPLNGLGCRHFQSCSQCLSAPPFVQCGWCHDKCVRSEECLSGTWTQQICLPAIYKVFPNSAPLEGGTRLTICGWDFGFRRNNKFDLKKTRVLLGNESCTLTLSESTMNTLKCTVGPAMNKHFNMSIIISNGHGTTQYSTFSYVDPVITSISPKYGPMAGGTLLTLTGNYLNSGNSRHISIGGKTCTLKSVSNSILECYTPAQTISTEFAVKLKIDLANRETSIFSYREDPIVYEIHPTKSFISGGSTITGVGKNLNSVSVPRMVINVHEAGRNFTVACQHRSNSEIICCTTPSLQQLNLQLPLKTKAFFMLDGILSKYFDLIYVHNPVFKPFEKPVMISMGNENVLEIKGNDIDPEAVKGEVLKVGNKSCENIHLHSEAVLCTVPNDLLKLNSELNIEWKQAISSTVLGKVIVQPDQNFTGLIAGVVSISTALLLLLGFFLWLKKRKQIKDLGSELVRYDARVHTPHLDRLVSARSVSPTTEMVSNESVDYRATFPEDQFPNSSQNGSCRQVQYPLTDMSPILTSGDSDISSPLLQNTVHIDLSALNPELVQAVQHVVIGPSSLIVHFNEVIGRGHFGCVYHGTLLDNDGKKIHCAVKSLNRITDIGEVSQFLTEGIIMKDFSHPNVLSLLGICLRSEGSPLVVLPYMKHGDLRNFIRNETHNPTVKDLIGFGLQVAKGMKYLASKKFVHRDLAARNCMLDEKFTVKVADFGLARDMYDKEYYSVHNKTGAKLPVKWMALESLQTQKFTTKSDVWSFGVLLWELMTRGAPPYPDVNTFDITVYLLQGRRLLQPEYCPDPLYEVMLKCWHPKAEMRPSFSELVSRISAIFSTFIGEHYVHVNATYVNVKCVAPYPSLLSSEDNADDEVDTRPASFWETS
IGF-1R, activated, sequence (P08069 31-1367): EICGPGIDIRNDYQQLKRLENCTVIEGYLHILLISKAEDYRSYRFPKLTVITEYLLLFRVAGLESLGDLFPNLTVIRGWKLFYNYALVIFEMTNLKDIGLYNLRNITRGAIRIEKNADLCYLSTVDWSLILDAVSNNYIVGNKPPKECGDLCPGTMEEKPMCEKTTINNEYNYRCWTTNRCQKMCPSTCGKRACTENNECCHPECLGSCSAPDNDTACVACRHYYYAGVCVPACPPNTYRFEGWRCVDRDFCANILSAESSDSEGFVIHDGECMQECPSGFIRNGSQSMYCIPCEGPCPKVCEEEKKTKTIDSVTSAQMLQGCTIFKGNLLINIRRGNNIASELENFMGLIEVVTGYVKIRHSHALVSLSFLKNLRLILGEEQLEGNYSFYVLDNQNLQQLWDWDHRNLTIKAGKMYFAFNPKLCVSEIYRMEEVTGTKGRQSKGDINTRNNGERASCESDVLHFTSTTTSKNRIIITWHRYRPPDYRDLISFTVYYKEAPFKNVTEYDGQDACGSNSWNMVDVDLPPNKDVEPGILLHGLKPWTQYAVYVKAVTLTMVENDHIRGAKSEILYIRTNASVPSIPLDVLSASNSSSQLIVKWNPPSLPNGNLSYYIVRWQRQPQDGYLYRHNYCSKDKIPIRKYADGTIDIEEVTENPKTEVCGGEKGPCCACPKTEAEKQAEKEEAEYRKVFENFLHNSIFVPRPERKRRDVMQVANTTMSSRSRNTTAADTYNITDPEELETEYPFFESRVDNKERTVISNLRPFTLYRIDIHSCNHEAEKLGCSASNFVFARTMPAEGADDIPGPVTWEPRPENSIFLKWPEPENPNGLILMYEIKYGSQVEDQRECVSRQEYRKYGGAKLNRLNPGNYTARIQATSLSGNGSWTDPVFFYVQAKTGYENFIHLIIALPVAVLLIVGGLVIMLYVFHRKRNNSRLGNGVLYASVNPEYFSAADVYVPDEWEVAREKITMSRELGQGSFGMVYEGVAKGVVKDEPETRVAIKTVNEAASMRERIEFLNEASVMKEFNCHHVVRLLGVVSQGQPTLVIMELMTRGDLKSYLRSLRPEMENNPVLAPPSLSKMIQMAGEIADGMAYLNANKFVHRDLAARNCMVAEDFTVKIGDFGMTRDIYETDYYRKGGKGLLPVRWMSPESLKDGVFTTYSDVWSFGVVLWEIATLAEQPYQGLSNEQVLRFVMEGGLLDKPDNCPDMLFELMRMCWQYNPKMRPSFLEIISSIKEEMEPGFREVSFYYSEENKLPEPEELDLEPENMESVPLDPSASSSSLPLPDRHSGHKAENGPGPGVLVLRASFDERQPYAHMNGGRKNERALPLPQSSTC
C-RAF, sequence (P04049 whole entry, species assumed): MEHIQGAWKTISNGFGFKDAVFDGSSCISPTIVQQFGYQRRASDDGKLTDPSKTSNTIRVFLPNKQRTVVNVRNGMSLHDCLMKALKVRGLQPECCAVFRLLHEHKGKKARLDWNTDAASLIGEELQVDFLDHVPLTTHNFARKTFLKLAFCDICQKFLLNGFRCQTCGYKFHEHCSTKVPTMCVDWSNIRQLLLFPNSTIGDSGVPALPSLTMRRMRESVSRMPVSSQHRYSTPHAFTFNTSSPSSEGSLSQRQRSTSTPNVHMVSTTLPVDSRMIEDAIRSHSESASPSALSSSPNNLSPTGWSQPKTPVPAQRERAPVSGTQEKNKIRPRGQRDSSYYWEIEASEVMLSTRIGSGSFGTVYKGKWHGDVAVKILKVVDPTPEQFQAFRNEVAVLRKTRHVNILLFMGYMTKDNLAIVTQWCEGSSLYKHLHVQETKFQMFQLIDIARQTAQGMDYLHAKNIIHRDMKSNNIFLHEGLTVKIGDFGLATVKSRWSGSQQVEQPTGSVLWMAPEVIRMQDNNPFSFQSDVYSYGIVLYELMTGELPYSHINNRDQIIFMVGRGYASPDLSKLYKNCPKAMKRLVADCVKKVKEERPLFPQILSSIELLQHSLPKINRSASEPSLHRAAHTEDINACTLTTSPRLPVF

SMILES | % activity vs. DMSO, C-RAF (C-RAF) | inhibition at 5 µM (SGK) | % activity vs. DMSO, SGK (SGK) | % activity vs. DMSO, JAK2 (JAK2) | IC50 (FTC133 cells) | % activity vs. DMSO, GSK3α (GSK3α) | % activity vs. DMSO, Met (Met) | % activity vs. DMSO, CDK1/cyclinB (CDK1/cyclinB) | % activity vs. DMSO, LIMK1 (LIMK1) | % activity vs. DMSO, IGF-1R, activated (IGF-1R, activated) | Activity versus other PAK kinases (other PAK kinases) | S6 phosphorylation, BCPAP and TPC1 cells (S6 phosphorylation) | S6 phosphorylation, FTC133 cells (S6 phosphorylation; FTC133 cells (FIG. 4B))
NCCC(=O)Nc1ccc(-n2nc(C(F)(F)F)cc2-c2ccc3ccc4ccccc4c3c2)cc1 [Compound 4, 3-amino-N-(4-(5-(phenanthren-3-yl)-3-(trifluoromethyl)-1H-pyrazol-1-yl)phenyl)-propanamide] | 104% | > 50% | 27% | 152% | 2.68 ± 2.08 µM | 133% | 89% | 83% | 130% | 97% | did not have activity versus other PAK kinases | inhibited this phosphorylation | 
CC(C)NC(=O)c1cc(-c2ccc3ccc4ccccc4c3c2)n(-c2ccc(NC(=O)CN)cc2)n1 [Compound 15, 1-(4-(2-Aminoacetamido)phenyl)-N-isopropyl-5-(phenanthren-3-yl)-1H-pyrazole-3-carboxamide] | 108% |  | 64% | 139% | 3.37 ± 3.31 µM | 118% | 77% | 95% | 117% | 83% | did not have activity versus other PAK kinases | inhibited 56 phosphorylation | inhibited 56 phosphorylation
